Measured values taken from patent publication US20070135457A1, “Pyrido[2,3-d]pyrimidine-2,4-diamines as pde2 inhibitors” (Pfizer Inc., priority 2003, published 2007).
Like-named read-outs stand apart in the source and are kept apart here.

Tests used:
[1] = biological target: T1, PDE 2 enzyme isolated from human platelets (Homo sapiens, UniProt O00408); assay: PDE 2 enzyme scintillation proximity assay (SPA); assay type: biochemical
T1 construct: PDE 2 enzyme was isolated from human platelets; from tissue; host or cells: human platelets (pooled blood from multiple donors); HiTrap Q anion-exchange fraction eluting at about 325 mM NaCl
Protocol: PDE 2 enzyme was isolated from human platelets with approximately 1.4 L of blood from multiple donors used to make the platelet pellets. Platelets were resuspended in approximately 75 mL of lysis buffer [20 mM Tris pH 7.2, 5 mM MgCl2, 250 mM Sucrose, 1 mM DTT, 1 μL/2 mL Sigma Protease inhibitor #8340; Sigma-Aldrich; St. Louis, Mo.] and lysed by sonication at 4° C., with 3 rounds of 1 min bursts then spun at 4° C. overnight at 100,000×g. Cleared lysates were loaded to AKTA Explorer FPLC (Amersham Biosciences; Piscataway, N.J.) in a series of three chromatographic separations, with an average load volume of 25 mL. A 5 mL HiTrap Q anion exchange column (Amersham Biosciences) was used. […] Two major cGMP activity fractions (PDE 5 and PDE 2) were isolated and pooled separately. The PDE 2-pooled fraction total was approximately 40 mL which was dispensed in cryovials of 200 μl/vial and placed in storage at −80° C.
The inhibitory activity of the compounds of formula (I) on recombinant or isolated PDE 2, and other PDE's, was determined using the […] scintillation proximity assay (SPA) kits from Amersham International (Little Chalfont, England). The SPA assays were performed using 96 well plates. The PDE SPA yttrium silicate beads (Amersham Biosciences) bind preferentially to the linear nucleotide, GMP, compared to the cyclic nucleotide, cGMP. ^3H-cGMP was added to the reaction and when the product, ^3H-GMP, was in […] to the beads, the scintillant within the bead was excited, which was detected using a Packard scintillation counter (Perkin-Elmer Life Sciences; Boston, Mass.). The enzyme concentration used was in the linear range and the Km of the enzyme was determined (15 uM). The final substrate concentration was <1/3 of Km (1 μM) so that IC50 values would approximate the Ki values. The assay was validated using literature compounds as controls before testing compounds. Then, PDE catalytic activity measurements obtained in the presence of the test compound, and those obtained in the absence of the test compound, were compared and the lC50 value is determined. […]

[2] = SPA, 1 μM substrate, read-out: PDE 2 Inhibition

T1 sequence (O00408 whole entry): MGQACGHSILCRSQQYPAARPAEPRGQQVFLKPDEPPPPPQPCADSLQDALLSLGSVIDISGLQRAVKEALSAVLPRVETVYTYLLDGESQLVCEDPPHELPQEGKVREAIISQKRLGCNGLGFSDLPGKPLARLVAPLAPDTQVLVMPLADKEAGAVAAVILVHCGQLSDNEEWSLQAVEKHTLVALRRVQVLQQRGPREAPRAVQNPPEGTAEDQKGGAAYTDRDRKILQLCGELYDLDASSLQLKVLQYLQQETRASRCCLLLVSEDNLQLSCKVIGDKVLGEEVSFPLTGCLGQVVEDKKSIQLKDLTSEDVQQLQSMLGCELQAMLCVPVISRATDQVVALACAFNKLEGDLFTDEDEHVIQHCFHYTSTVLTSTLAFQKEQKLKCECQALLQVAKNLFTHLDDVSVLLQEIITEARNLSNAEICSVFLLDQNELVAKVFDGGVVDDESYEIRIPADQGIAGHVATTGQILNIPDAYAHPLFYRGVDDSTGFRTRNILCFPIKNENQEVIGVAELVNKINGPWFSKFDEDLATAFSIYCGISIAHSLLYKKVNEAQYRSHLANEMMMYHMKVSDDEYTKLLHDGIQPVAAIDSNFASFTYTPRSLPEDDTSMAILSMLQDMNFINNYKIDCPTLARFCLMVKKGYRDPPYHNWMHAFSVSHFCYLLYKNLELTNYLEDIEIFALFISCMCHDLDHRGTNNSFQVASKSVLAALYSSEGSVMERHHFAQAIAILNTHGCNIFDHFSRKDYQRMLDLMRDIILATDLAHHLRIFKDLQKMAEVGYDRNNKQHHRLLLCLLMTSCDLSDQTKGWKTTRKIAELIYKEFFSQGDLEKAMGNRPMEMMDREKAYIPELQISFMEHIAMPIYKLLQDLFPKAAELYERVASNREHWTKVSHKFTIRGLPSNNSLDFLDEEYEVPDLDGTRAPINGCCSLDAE

melting point [°C]	IC50 [1, 2] [nM]	IC50 ([1]; PDE 2 isolated from human platelets, read-out: IC50) [nM]	SMILES
112 to 114	50 to 250	–	COc1cc(CNc2nc(NCCc3ccccc3)nc3ncccc23)cc(OC)c1 [Example 12, N^4-(3,5-Dimethoxy-benzyl)-N^2-2-phenethyl-pyrido[2,3-d]pyrimidine-2,4-diamine]
120 to 121	< 50	–	COc1cc(CNc2nc(NCCc3cccs3)nc3ncccc23)cc(OC)c1 [Example 10, N^4-(3,5-Dimethoxy-benzyl)-N^2-(2-thiophen-2-yl-ethyl)-pyrido[2,3-d]pyrimidine-2,4-diamine]
227 to 228	250 to 1000	–	COc1ccc(CNc2nc(NCc3ccccc3C(F)(F)F)nc3ncccc23)cc1OC [Example 20, N^4-(3,4-Dimethoxy-benzyl)-N^2-(2-trifluoromethyl-benzyl)-pyrido[2,3-d]pyrimidine-2,4-diamine]
159 to 160	< 50	–	COc1cc(CNc2nc(NCc3cc(OC)cc(OC)c3)c3cccnc3n2)cc(OC)c1 [Example 5, N^2-N^4-Bis-(3,5-dimethoxy-benzyl)-pyrido[2,3-d]pyrimidine-2,4-diamine]
225 to 226	< 50	–	COc1ccc(CNc2nc(NCCc3ccc(F)cc3)nc3ncccc23)cc1OC [Example 16, N^4-(3,4-Dimethoxy-benzyl)-N^2-[2-(4-fluoro-phenyl)-ethyl]-pyrido[2,3-d]pyrimidine-2,4-diamine]
165 to 167	50 to 250	–	COc1cc(CNc2nc(NCCOc3ccccc3)nc3ncccc23)cc(OC)c1 [Example 33, N^4-(3,5-Dimethoxy-benzyl)-N^2-(3-phenoxy-ethyl)-pyrido[2,3-d]pyrimidine-2,4-diamine]
95 to 100	50 to 250	–	COc1cc(CCNc2nc(NCc3cc(OC)cc(OC)c3)c3cccnc3n2)cc(OC)c1 [Example 13, N^4-(3,5-Dimethoxy-benzyl)-N^2-[2-(3,5-dimethoxy-phenyl)-ethyl]-pyrido[2,3-d]pyrimidine-2,4-diamine]
184 to 185	250 to 1000	–	COc1ccc(CNc2nc(NCCCc3ccc(C(C)=O)cc3)nc3ncccc23)cc1OC [Example 24, 1-(4-{3-[4-(3,4-Dimethoxy-benzylamino)-pyrido[2,3-d]pyrimidin-2-ylamino]-propyl}-phenyl)-ethanone]
85 to 90	250 to 1000	–	COc1cc(CNc2nc(NCCc3ccc(Cl)cc3)nc3ncccc23)cc(OC)c1 [Example 8, N^2-[2-(4-Chloro-phenyl)-ethyl]-N^4-(3,5-dimethoxy-benzyl)-pyrido[2,3-d]pyrimidine-2,4-diamine]
191 to 193	250 to 1000	–	COc1ccc(CNc2nc(NCCCc3ccc4ncsc4c3)nc3ncccc23)cc1OC [Example 27, N^2-3-(Benzothiazol-6-yl-propyl)-N^4-(3,4-dimethoxy-benzyl)-pyrido[2,3d]pyrimidine-2,4-diamine]
121 to 122	250 to 1000	–	COc1ccc(CNc2nc(NCc3ccc(C(O)C(F)(F)F)cc3)nc3ncccc23)cc1OC (stereo not drawn) [Example 23, 1-(4-{[4-(3,4-Dimethoxy-benzylamino)-pyrido[2,3-d]pyrimidin-2-ylamino]-methyl}-phenyl)-2,2,2-trifluoro-ethanol]
152 to 155	250 to 1000	–	COc1ccc(CNc2nc(NCCCc3cccc(C(C)=O)c3)nc3ncccc23)cc1OC [Example 37, 1-(3-{3-[4-(3,4-Dimethoxy-benzylamino)-pyrido[2,3-d]pyrimidin-2-ylamino]-propyl}-phenyl)-ethanone]
227 to 228	50 to 250	–	COc1ccc(CNc2nc(NCCc3cccc(F)c3)nc3ncccc23)cc1OC [Example 14, N^4-(3,4-Dimethoxy-benzyl)-N^2-[2-(3-fluoro-phenyl)-ethyl]-pyrido[2,3-d]pyrimidine-2,4-diamine]
70 to 75	50 to 250	–	COc1cc(CNc2nc(NCCCc3ccc(C(C)(C)O)cc3)nc3ncccc23)cc(OC)c1 [Example 22, 2-(4-{3-[4-(3,5-Dimethoxy-benzylamino)-pyrido[2,3-d]pyrimidin-2-ylamino]-propyl}-phenyl)-propan-2-ol]
222 to 223	250 to 1000	–	COc1cc(CNc2nc(NCc3cccnc3)nc3ncccc23)cc(OC)c1 [Example 4, N^4-(3,5-Dimethoxy-benzyl)-N^2-2-pyridin-3-ylmethyl-pyrido[2,3-d]pyrimidine-2,4-diamine]
191 to 193	250 to 1000	–	COc1ccc(CNc2nc(NCCCc3ccc4nonc4c3)nc3ncccc23)cc1OC [Example 26, N^2-3-(Benzo[1,2,5]oxadiazol-5-yl-propyl)-N^4-(3,4-dimethoxy-benzyl)-pyrido[2,3-d]pyrrimidine-2,4-diamine]
157 to 158	50 to 250	–	COc1cc(CNc2nc(NCCc3ccccn3)nc3ncccc23)cc(OC)c1 [Example 1, N^4-(3,5-Dimethoxy-benzyl)-N^2-(2-pyridin-2-yl-ethyl)-pyrido[2,3-d]pyrimidine-2,4-diamine]
185 to 186	50 to 250	–	COc1cc(CNc2nc(NCCc3cccnc3)nc3ncccc23)cc(OC)c1 [Example 2, N^4-(3,5-Dimethoxy-benzyl)-N^2-(2-pyridin-3-yl-ethyl)-pyrido[2,3-d]pyrimidine-2,4-diamine]
194 to 195	50 to 250	–	COc1ccc(CNc2nc(NCCCCc3ccccc3)nc3ncccc23)cc1OC [Example 18, N^4-(3,4-Dimethoxy-benzyl)-N^2-(4-phenyl-butyl)-pyrido[2,3-d]pyrimidine-2,4-diamine]
105 to 109	250 to 1000	–	COc1cc(CNc2nc(NCc3ccc(C(C)(C)O)cc3)nc3ncccc23)cc(OC)c1 [Example 11, 2-(4-{[4-(3,5-Dimethoxy-benzylamino)-pyrido[2,3-d]pyrmidin-2-ylamino]-methyl}-phenyl)-propan-2-ol]
217 to 218	< 50	–	COc1ccc(CNc2nc(NCCc3ccccc3)nc3ncccc23)cc1OC [Example 17, N^4-(3,4-Dimethoxy-benzyl)-N^2-phenethyl-pyrido[2,3-d]pyrimidine-2,4-diamine]
–	–	1700	CCCCCCC(C(C)O)n1cnc2c(N)ncnc21 (stereo not drawn) [EHNA, erythro-9-(2-hydroxy-3-nonyl)adenine, reference compound]
220 to 222	250 to 1000	–	COc1ccc(CNc2nc(NCCCc3ccc(C#N)cc3)nc3ncccc23)cc1OC [Example 30, 4-{3-[4-(3,4-Dimethoxy-benzylamino)-pyrido[2,3-d]pyrimidin-2-ylamino]-propyl}-benzonitrile]
220 to 222	50 to 250	–	COc1ccc(CNc2nc(NCCc3ccccc3F)nc3ncccc23)cc1OC [Example 15, N^4-(3,4-Dimethoxy-benzyl)-N^2-[2-(2-fluoro-phenyl)-ethyl]-pyrido[2,3-d]pyrimidine-2,4-diamine]
–	250 to 1000	–	COc1cc(CNc2nc(NCCCc3ccncc3)nc3ncccc23)cc(OC)c1 [Example 31, N^4-(3,5-Dimethoxy-benzyl)-N^2-(3-pyridin-4-yl-propyl)-pyrido[2,3d]pyrimidine-2,4-diamine]
–	250 to 1000	–	COc1ccc(CNc2nc(NCCCc3cccc(C4(C)OCCO4)c3)nc3ncccc23)cc1OC [Example 28, N^4-(3,4-Dimethoxy-benzyl)-N^2-{3-[3-(2-methyl-[1,3]-dioxolan-2-yl)-phenyl]-propyl}-pyrido[2,3-d]pyrimidine-2,4-diamine]
198 to 200	250 to 1000	–	COc1ccc(CNc2nc(NCCCc3ccc(C(=O)C(F)(F)F)cc3)nc3ncccc23)cc1OC [Example 36, 1-(4-{3-[4-(3,4-Dimethoxy-benzylamino)-pyrido[2,3-d]pyrimidin-2-ylamino]-propyl}-phenyl)-2,2,2-trifluoro-ethanone]
150 to 152	250 to 1000	–	CCOc1cc(CNc2nc(NCCCc3ccc(C(C)(C)O)cc3)nc3ncccc23)ccc1OC [Example 35, 2-(4-{3-[4-(3-Ethoxy-4-methoxy-benzylamino)-pyrido[2,3-d]pyrimidin-2-ylamino]-propyl}-phenyl)-propan-2-ol]
–	50 to 250	–	COc1cc(CNc2nc(NCCCc3ccccc3)nc3ncccc23)cc(OC)c1 [Example 7, N^4-(3,5-Dimethoxy-benzyl)-N^2-(3-phenyl-propyl)-pyrido[2,3-d]pyrimidine-2,4-diamine]
